# Laboratory results taken from PMC10681007, “Targeted Degradation of XIAP is Sufficient and Specific to Induce Apoptosis in MYCN-overexpressing High-risk Neuroblastoma” (Cancer Research Communications, 2023).
# Like-named read-outs stand apart in the source and are kept apart here. Starred links: 1 amine or outer side, 2 acyl side, 3 side chain; linkers in the order of their positions; H or OH if unused. Positions of bridges follow the written chain, without caps; N, C: chain ends. Non-standard residues stand in square brackets, D forms with d. Residues, ends and D or L forms follow the SMILES beside them. Chains are numbered I, II in the order given. Hexamethylenediamine = C(CCCN[*:2])CCN[*:1]; Dip = N[C@H](C(=O)O)C(c1ccccc1)c1ccccc1; Chg = N[C@H](C(=O)O)C1CCCCC1; NMeA = CN[C@@H](C)C(=O)O
# Key:
# [1] = system: BE(2)-C; experiment: RealTime-Glo MT cell viability assay; type: cell-based, Human
# Protocol: (§1) Cell viability was measured in real time using RealTime-Glo MT Cell Viability Assay as according to manufacturer's instructions from Promega. Cells were seeded at 1 × 10^4 cells per well and treated with a range of doses of indicated antagonists, followed by continuous bioluminescence reading every 24 hours for 3 days using luminescent plate reader, Varioskan (SkanIT software). IC50 was determined using GraphPad Prism software.
# (§2) To determine their efficacy in neuroblastoma, a panel of neuroblastoma cell lines including neuroblastoma patient-derived cell lines and noncancerous normal tissue-derived cell lines were treated with increasing doses of each antagonist (0–100 µmol/L), followed by real-time measurement of cell viability every 24 for 72 hours.
# [2] = system: IMR-32; experiment: RealTime-Glo MT cell viability assay; type: cell-based, Human
# Protocol: as §1, §2
# [3] = system: KELLY; experiment: RealTime-Glo MT cell viability assay; type: cell-based, Human
# Protocol: as §1, §2
# [4] = system: NB1; experiment: RealTime-Glo MT cell viability assay; type: cell-based, Human
# Protocol: as §1, §2
# [5] = system: NBL-07-0317 patient-derived neuroblastoma cells; experiment: RealTime-Glo MT cell viability assay; type: cell-based, Human
# Protocol: as §1, §2
# [6] = system: NBL01-1116 patient-derived neuroblastoma cells; experiment: RealTime-Glo MT cell viability assay; type: cell-based, Human
# Protocol: as §1, §2
# [7] = system: NBL16-0118 patient-derived neuroblastoma cells; experiment: RealTime-Glo MT cell viability assay; type: cell-based, Human
# Protocol: as §1, §2
# [8] = system: NBL27-0218A patient-derived neuroblastoma cells; experiment: RealTime-Glo MT cell viability assay; type: cell-based, Human
# Protocol: as §1, §2
# [9] = system: NLF; experiment: RealTime-Glo MT cell viability assay; type: cell-based, Human
# Protocol: as §1, §2
# [10] = system: SK-N-AS; experiment: RealTime-Glo MT cell viability assay; type: cell-based, Human
# Protocol: as §1, §2
# [11] = system: SK-N-SH; experiment: RealTime-Glo MT cell viability assay; type: cell-based, Human
# Protocol: as §1, §2
# [12] = target: T1, XIAP (NanoLuc-XIAP) (Homo sapiens, UniProt P98170); experiment: NanoBRET XIAP target engagement assay; type: binding; details: NanoBRET tracer displacement, read-out: apparent intracellular affinity to XIAP (EC50)
# T1 construct: host or cells: BE(2)-C and KELLY human neuroblastoma cells
# T1 sequence (P98170 whole entry): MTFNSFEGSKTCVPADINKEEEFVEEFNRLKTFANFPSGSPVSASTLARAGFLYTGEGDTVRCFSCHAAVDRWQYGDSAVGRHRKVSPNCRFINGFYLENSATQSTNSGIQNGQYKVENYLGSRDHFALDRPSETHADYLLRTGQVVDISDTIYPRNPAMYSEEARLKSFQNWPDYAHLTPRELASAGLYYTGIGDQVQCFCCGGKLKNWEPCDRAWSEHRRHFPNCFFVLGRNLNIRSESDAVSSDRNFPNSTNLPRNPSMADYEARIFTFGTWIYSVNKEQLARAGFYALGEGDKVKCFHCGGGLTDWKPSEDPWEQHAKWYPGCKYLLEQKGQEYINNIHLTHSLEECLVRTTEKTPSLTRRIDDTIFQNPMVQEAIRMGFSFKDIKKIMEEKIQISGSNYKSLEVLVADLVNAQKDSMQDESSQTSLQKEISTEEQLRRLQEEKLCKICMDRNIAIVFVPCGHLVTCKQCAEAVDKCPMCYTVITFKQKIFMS
# Protocol: To better understand the mechanisms by which these compounds target XIAP in high-risk neuroblastoma, binding interactions between the antagonists and XIAP were first determined in BE(2)-C and KELLY cells using a NanoBRET quantitative target engagement assay. […] As the BRET signal was not completely abolished even at saturating A4 concentrations, NMR was conducted to further examine the binding interaction between A4 and XIAP (Supplementary Fig. S2A and S2B).
# FIGURE 3 Binding and degradation of XIAP by A4 is necessary for targeting high-risk neuroblastoma cells. […] BRET signal was measured at 2 hours after treatment using a Tecan Infinite 200 Pro equipped with NanoBRET dual-filters (donor 460 nm and acceptor 618 nm) and determined via the formula (BRET ratio = values at 618 nm/values at 460 nm). […] Cells were treated with increasing dose of A4 or BV6 and luminescence was measured continuously in real time for 2 hours. Luminescence values were normalized to DMSO vehicle control and degradation profiles were generated using GraphPad Prism. Values were expressed as mean ± SD of three independent experiments conducted in duplicates. […] BRET signal was measured every 5 minutes for 6 hours after treatment using a Tecan equipped with NanoBRET dual-filters (donor 460 nm and acceptor 618 nm) and determined via the formula (BRET ratio = values at 618 nm/values at 460 nm). […]
smiles,measurement,setting,value
CN[C@@H](C)C(=O)N[C@H](C(=O)N1CCC[C@H]1C(=O)N[C@H](C(=O)NCCCCCCNC(=O)[C@@H](NC(=O)[C@@H]1CCCN1C(=O)[C@@H](NC(=O)[C@H](C)NC)C1CCCCC1)C(c1ccccc1)c1ccccc1)C(c1ccccc1)c1ccccc1)C1CCCCC1 [BV6] (I: H-[NMeA][Chg]P[Dip] / II: H-[NMeA][Chg]P[Dip]; linker I:C-II:C via Hexamethylenediamine),IC50,[1]; 24 hours,21.2 µM
same,IC50,[1]; 48 hours,16.8 µM
same,IC50,[1]; 72 hours,16.5 µM
same,IC50,"[2]; IMR-32, 24 hours",7.4 µM
same,IC50,"[2]; IMR-32, 48 hours",5.8 µM
same,IC50,"[2]; IMR-32, 72 hours",4.3 µM
same,IC50,[3]; 24 hours,13.5 µM
same,IC50,[3]; 48 hours,12.9 µM
same,IC50,[3]; 72 hours,10.1 µM
same,IC50,"[4]; NB1, 24 hours",7 µM
same,IC50,"[4]; NB1, 48 hours",5.5 µM
same,IC50,"[4]; NB1, 72 hours",3.8 µM
same,IC50,"[5]; NBL-07-0317, 24 hours",8.1 µM
same,IC50,"[5]; NBL-07-0317, 48 hours",5.5 µM
same,IC50,"[5]; NBL-07-0317, 72 hours",4.8 µM
same,IC50,"[6]; NBL01-1116, 24 hours",14.5 µM
same,IC50,"[6]; NBL01-1116, 48 hours",9.3 µM
same,IC50,"[6]; NBL01-1116, 72 hours",8.5 µM
same,IC50,"[7]; NBL16-0118, 24 hours",5.1 µM
same,IC50,"[7]; NBL16-0118, 48 hours",2.8 µM
same,IC50,"[7]; NBL16-0118, 72 hours",2.3 µM
same,IC50,[8]; 24 hours,5.9 µM
same,IC50,[8]; 48 hours,3.6 µM
same,IC50,[8]; 72 hours,2.6 µM
same,IC50,[9]; 24 hours,7.4 µM
same,IC50,[9]; 48 hours,3.8 µM
same,IC50,[9]; 72 hours,3.7 µM
same,IC50,[10]; 24 hours,4.6 µM
same,IC50,[10]; 48 hours,3.2 µM
same,IC50,[10]; 72 hours,2.6 µM
same,IC50,[11]; 24 hours,12.4 µM
same,IC50,[11]; 48 hours,10.5 µM
same,IC50,[11]; 72 hours,9.7 µM
same,EC50,[12]; BE(2)-C cells,0.21 µM
same,EC50,[12]; KELLY cells,0.3 µM
